Assay results taken from ChEMBL document CHEMBL4118032, “Geranylpyrrol A and Piericidin F from Streptomyces sp. CHQ-64 ΔrdmF” (J Nat Prod, 2017).
Counter-ions that a name gives are not always drawn.

Assays:
Type in all cases: functional, cell-based
HL-60 = test: Cytotoxicity against human HL60 cells after 72 hrs by MTT assay; conditions: HL-60, 72 h
NCI-H1975 = test: Cytotoxicity against human NCI-H1975 cells after 24 hrs by sulforhodamine B assay; conditions: NCI-H1975, 24 h
[1] = Cytotoxicity against human MCF7/ADM cells after 24 hrs by sulforhodamine B assay
K562 = test: Cytotoxicity against human K562 cells after 72 hrs by MTT assay; conditions: K562, 72 h
HCT-116 = test: Cytotoxicity against human HCT116 cells after 24 hrs by sulforhodamine B assay; conditions: HCT-116, 24 h
NB-4 = test: Cytotoxicity against human NB4 cells after 72 hrs by MTT assay; conditions: NB-4, 72 h
HeLa = test: Cytotoxicity against human HeLa cells after 24 hrs by sulforhodamine B assay
A549 = test: Cytotoxicity against human A549 cells after 24 hrs by sulforhodamine B assay; conditions: A549, 24 h

Row | SMILES | IC50 (HL-60) [µM] | IC50 (NCI-H1975) [µM] | IC50 [1] [µM] | IC50 (K562) [µM] | IC50 (HCT-116) [µM] | IC50 (NB-4) [µM] | IC50 (HeLa) [µM] | IC50 (A549) [µM]
1 | C/C=C(\C)[C@H](OC)[C@H](C)/C=C(C)/C=C/C/C(C)=C/Cc1nc(OC)cc(O)c1C | > 30 | 0.49 | > 30 | > 30 | > 30 | 0.037 | 0.003 | 0.56
2 | COC(=O)c1[nH]cc(C/C=C(\C)CCC=C(C)C)c1NC(C)=O | > 30 | > 30 | > 30 | > 30 | > 30 | > 30 | > 30 | > 30
3 | COc1cccc2c1C(=O)c1c(O)c3c(c(O)c1C2=O)C[C@@](O)(C(=O)CO)C[C@@H]3O[C@H]1C[C@H](N)[C@H](O)[C@H](C)O1 [DOXORUBICIN HYDROCHLORIDE] | – | 0.2 | 25.2 | – | – | 0.4 | – | –
